Assay results published in ChEMBL document CHEMBL4476867, “Hydroxy formamide derivatives and their use” (2016).

Experiments:
[1] = target: T1, Bone morphogenetic protein 1 (Homo sapiens, UniProt P13497); test: Inhibition of C-terminal FLAG-6x-His epitope tagged and N-terminal human RAGE signal sequence tagged human BMP1 (23 to 721 amino acids) expressed in CHO-E1 cells pre-incubated for 10 mins before promyostatin peptide substrate addition and measured after 30 mins using 50 nM BMP1 by FRET based assay; assay type: cell-based
T1 sequence (P13497 whole entry): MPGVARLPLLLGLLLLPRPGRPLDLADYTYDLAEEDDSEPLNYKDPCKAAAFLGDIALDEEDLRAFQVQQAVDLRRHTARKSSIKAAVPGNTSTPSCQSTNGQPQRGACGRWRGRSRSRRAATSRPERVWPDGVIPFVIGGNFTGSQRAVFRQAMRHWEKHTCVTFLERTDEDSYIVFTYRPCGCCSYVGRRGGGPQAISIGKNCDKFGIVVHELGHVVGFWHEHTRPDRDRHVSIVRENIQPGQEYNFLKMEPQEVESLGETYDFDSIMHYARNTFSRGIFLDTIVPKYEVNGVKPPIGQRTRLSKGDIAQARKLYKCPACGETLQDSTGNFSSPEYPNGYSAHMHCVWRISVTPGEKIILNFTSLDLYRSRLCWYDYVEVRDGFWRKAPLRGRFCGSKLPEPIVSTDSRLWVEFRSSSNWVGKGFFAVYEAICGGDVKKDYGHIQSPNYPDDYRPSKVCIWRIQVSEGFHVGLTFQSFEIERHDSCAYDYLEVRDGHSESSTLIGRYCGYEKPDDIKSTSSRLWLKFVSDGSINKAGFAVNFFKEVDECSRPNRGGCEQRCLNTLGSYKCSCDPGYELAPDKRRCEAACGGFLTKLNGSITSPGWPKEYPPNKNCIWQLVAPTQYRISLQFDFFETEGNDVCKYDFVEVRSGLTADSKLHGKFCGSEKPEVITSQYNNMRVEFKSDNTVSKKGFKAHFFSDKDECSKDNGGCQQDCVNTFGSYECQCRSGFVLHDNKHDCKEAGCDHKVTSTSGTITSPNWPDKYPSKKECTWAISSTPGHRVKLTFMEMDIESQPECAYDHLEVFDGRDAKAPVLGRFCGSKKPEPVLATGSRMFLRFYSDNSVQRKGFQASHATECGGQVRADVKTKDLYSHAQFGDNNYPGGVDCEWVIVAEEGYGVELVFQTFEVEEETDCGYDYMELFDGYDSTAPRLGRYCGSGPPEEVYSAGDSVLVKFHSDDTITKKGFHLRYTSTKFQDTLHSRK

[2] = Reduction in mature collagen deposition levels in human cardiac fibroblasts incubated for 24 to 48 hrs by immunostaining based assay; assay type: functional
Procedure, shortened: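 Methanol fixation at −20° C for 10 min followed a 24 to 48 hr treatment at 37° C of human cardiac fibroblasts in 96-well plates, in ficoll crowding EMEM with 100 μM ascorbic acid and DMSO under 0.3%. Imaging on an Operetta system captured anti-mature collagen I staining, detected with an Alexa647 secondary antibody, alongside Hoechst-stained nuclei. In GraphPad Prism, an IC50 was fitted to collagen intensity normalised to nuclei count per field.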

[3] = Reduction in PICP levels in human cardiac fibroblasts incubated for 24 to 48 hrs by ELISA; assay type: functional
Procedure, shortened: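 Human cardiac fibroblasts no older than passage 6 were seeded at 10,000 to 15,000 cells per well in 96-well plates and, one day later, exposed for 24 to 48 hr at 37° C to treatment in ficoll crowding EMEM with 100 μM ascorbic acid and less than 0.3% DMSO. IC50 was determined in GraphPad Prism from a log(inhibitor)-response fit of procollagen I C-terminal propeptide levels in the medium, measured by Quidel ELISA and expressed relative to untreated controls.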

Tolloid-like protein 1 = Tolloid-like protein 1 (Homo sapiens, UniProt O43897, I156V/N221S/V284A); test: Inhibition of recombinant human TLL1 I156V/N221S/V284A mutant expressed in CHOE1A cells pre-incubated for 10 mins before promyostatin peptide substrate addition and measured after 60 mins by FRET based assay; assay type: cell-based
[4] = target: T1, Bone morphogenetic protein 1; test: Inhibition of C-terminal FLAG-6x-His epitope tagged and N-terminal human RAGE signal sequence tagged human BMP1 (23 to 721 amino acids) expressed in CHO-E1 cells pre-incubated for 10 mins before promyostatin peptide substrate addition and measured after 60 mins using 0.5 nM BMP1 by FRET based assay; assay type: cell-based
Tolloid-like protein 2 = target: T2, Tolloid-like protein 2 (Homo sapiens, UniProt Q9Y6L7); test: Inhibition of C-terminal Avi-6x-His epitope tagged and N-terminal human RAGE signal sequence tagged recombinant human TLL2 (26 to 1015 amino acids) expressed in CHOE1A cells incubated for 60 mins with promyostatin peptide substrate by FRET based assay; assay type: cell-based
T2 sequence (Q9Y6L7 whole entry): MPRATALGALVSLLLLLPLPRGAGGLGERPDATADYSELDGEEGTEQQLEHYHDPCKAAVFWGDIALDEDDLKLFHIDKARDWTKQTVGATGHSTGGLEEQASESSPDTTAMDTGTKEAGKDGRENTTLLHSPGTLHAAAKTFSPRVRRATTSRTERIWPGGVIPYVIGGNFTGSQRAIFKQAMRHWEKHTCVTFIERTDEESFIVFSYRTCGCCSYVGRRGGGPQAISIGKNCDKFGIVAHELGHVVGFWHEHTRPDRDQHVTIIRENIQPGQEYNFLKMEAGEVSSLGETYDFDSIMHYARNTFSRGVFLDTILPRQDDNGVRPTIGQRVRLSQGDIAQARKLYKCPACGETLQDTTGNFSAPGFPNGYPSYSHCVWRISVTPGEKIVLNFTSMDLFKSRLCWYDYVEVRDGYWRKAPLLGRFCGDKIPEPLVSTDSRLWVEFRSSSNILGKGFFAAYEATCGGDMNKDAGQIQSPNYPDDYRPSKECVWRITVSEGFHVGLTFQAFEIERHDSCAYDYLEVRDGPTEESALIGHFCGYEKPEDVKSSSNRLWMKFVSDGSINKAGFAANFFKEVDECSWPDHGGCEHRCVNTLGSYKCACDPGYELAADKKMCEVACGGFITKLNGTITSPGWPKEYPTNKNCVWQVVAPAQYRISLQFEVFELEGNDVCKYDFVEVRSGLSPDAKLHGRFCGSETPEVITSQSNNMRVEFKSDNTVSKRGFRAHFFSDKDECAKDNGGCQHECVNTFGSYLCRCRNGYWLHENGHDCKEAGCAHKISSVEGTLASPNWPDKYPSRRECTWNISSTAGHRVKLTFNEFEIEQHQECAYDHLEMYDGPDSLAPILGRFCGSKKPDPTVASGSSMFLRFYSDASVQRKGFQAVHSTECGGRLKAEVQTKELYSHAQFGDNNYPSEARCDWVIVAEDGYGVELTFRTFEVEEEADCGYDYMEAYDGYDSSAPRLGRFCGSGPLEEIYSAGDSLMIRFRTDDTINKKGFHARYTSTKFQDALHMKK

Chain of Tolloid-like protein 1 (O43897 148-1013 I156V/N221S/V284A limits assumed): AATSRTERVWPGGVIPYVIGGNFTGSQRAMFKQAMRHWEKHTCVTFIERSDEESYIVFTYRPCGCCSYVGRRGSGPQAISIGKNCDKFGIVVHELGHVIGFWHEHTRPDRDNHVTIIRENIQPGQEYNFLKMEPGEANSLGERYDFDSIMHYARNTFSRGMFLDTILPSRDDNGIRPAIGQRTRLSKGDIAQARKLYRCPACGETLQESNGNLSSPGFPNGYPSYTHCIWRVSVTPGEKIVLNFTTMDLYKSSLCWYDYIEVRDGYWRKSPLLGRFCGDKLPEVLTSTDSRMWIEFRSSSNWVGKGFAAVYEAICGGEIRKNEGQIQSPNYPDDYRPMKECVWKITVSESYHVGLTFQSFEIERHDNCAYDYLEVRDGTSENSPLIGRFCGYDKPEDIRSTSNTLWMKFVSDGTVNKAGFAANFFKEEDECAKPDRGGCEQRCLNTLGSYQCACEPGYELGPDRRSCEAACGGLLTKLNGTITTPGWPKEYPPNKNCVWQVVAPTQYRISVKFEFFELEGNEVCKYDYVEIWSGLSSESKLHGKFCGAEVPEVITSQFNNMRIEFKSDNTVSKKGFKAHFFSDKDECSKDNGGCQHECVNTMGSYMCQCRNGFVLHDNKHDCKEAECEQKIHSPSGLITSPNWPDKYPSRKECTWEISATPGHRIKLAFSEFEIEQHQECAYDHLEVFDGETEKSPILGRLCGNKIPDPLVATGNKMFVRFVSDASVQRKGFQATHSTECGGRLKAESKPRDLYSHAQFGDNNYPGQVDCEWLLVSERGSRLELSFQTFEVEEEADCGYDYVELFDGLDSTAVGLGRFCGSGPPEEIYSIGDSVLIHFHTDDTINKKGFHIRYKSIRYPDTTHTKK

Compound	IC50 [1] [µM]	IC50 [2] [µM]	IC50 [3] [µM]	IC50 (Tolloid-like protein 1) [µM]	IC50 [4] [µM]	IC50 (Tolloid-like protein 2) [µM]
CCCCC[C@@H](C(=O)NCNC(=O)c1ccc(-c2ccc(P(=O)(O)O)c(OCC)c2)o1)[C@@H](CC)N(O)C=O	< 0.2	< 1	< 3.98	< 0.398	< 0.126	< 0.794
CCCCC[C@@H](C(=O)NCNC(=O)c1ccc(-c2cc(OCC)cc(P(=O)(O)O)c2)o1)[C@@H](CC)N(O)C=O	< 0.2	< 1	< 3.98	< 0.398	< 0.126	< 0.794
CCOc1cc(C(=O)N(CC(=O)O)CC(=O)O)cc(-c2ccc(C(=O)NCNC(=O)[C@H](CCc3ccc(F)cc3F)[C@@H](CC)N(O)C=O)o2)c1	< 0.2	< 1	< 3.98	< 0.398	< 0.126	< 0.794
CCCCC[C@@H](C(=O)NCNC(=O)c1ccc(-c2ccc(C(=O)N[C@@H](CC(=O)O)C(=O)O)c(OCC(=O)O)c2)o1)[C@@H](CC)N(O)C=O	< 0.2	< 1	< 3.98	< 0.398	< 0.126	< 0.794
CCCCC[C@@H](C(=O)NCNC(=O)c1ccc(-c2cc(CP(=O)(O)O)cc(OCC)c2)o1)[C@@H](CC)N(O)C=O	< 0.2	< 1	< 3.98	< 0.398	< 0.126	< 0.794
CCCCC[C@@H](C(=O)NCNC(=O)c1ccc(-c2cc(O)cc(C(=O)O)c2)o1)[C@@H](CC)N(O)C=O	< 0.2	< 1	< 3.98	< 0.398	< 0.126	< 0.794
CCCCC[C@@H](C(=O)NCNC(=O)c1ccc(-c2cc(O)c(C(=O)O)c(OCC)c2)o1)[C@@H](CC)N(O)C=O	< 0.2	< 1	< 3.98	< 0.398	< 0.126	< 0.794
CCCCC[C@@H](C(=O)NCNC(=O)c1ccc(-c2cc(OCC)c(F)c(C(=O)O)c2)o1)[C@@H](CC)N(O)C=O	< 0.2	< 1	< 3.98	< 0.398	< 0.126	< 0.794
CCCCC[C@@H](C(=O)NCNC(=O)c1ccc(-c2ccc(C(=O)N[C@H](CC(=O)O)C(=O)O)c(OCC)c2)o1)[C@@H](CC)N(O)C=O	< 0.2	< 1	< 3.98	< 0.398	< 0.126	< 0.794
CCCCC[C@@H](C(=O)NCNC(=O)c1ccc(-c2cc(OCC)cc(C(=O)N[C@@H](CCC(=O)O)C(=O)O)c2)o1)[C@@H](CC)N(O)C=O	< 0.2	< 1	< 3.98	< 0.398	< 0.126	< 0.794
CCCCC[C@@H](C(=O)NCNC(=O)c1ccc(-c2cc(OCC(=O)O)cc(C(=O)O)c2)o1)[C@@H](CC)N(O)C=O	< 0.2	< 1	< 3.98	< 0.398	< 0.126	< 0.794
CCOc1cc(-c2ccc(C(=O)NCNC(=O)[C@H](CCc3ccccc3)[C@@H](CC)N(O)C=O)o2)ccc1C(=O)N[C@@H](CC(=O)O)C(=O)O	< 0.2	< 1	< 3.98	< 0.398	< 0.126	< 0.794
CCOc1cc(-c2ccc(C(=O)NCNC(=O)[C@H](CCc3ccccc3)[C@@H](CC)N(O)C=O)o2)ccc1C(=O)N(CC(=O)O)CC(=O)O	< 0.2	< 1	< 3.98	< 0.398	< 0.126	< 0.794
CCCCC[C@@H](C(=O)NCNC(=O)c1ccc(-c2ccc(C(=O)NCP(=O)(O)O)c(OCC)c2)o1)[C@@H](CC)N(O)C=O	< 0.2	< 1	< 3.98	< 0.398	< 0.126	< 0.794
CCCCC[C@@H](C(=O)NCNC(=O)c1ccc(-c2cc(OCC)cc(C(=O)O)c2O)o1)[C@@H](CC)N(O)C=O	< 0.2	< 1	< 3.98	< 0.398	< 0.126	< 0.794
CCCCC[C@@H](C(=O)NCNC(=O)c1ccc(-c2cc(OCC(=O)O)cc(C(=O)O)c2O)o1)[C@@H](CC)N(O)C=O	< 0.2	< 1	< 3.98	< 0.398	< 0.126	< 0.794
CCCCC[C@@H](C(=O)NCNC(=O)c1ccc(-c2cc(OCCC)cc(C(=O)O)c2)o1)[C@@H](CC)N(O)C=O	< 0.2	< 1	< 3.98	< 0.398	< 0.126	< 0.794
CCOc1cc(-c2ccc(C(=O)NCNC(=O)[C@H](CCc3ccc(F)cc3F)[C@@H](CC)N(O)C=O)o2)ccc1C(=O)N[C@@H](CC(=O)O)C(=O)O	< 0.2	< 1	< 3.98	< 0.398	< 0.126	< 0.794
CCCCC[C@@H](C(=O)NCNC(=O)c1ccc(-c2ccc(C(=O)N(CC(=O)O)CC(=O)O)c(OCC)c2)o1)[C@@H](CC)N(O)C=O	< 0.2	< 1	< 3.98	< 0.398	< 0.126	< 0.794
